Source: patent publication US20210290610A1, “COMBINATION OF FXR AGONISTS” (priority 2016, published 2021)

Key:
[1] = test system: STAM Model of Non-alcoholic Steatohepatitis; experiment: In vivo efficacy study in the STAM model of non-alcoholic steatohepatitis; design: species or system C57BL/6 mice; conditions: for NAFLD Activity Score (NAS) compared with the STAM-Vehicle group: FIG. 1.1
Source text: Example: In Vivo Efficacy Study of cenicriviroc in combination with Compound A (“NVP-CH-4”) and Compound B (“NVP-CH-5”) in the STAM Model of Non-alcoholic Steatohepatitis (Treatment period: 6 to 9 wks or 9 to12 wks)
The study involves 14-day-pregnant C57BL/6 mice. NASH was established by a single subcutaneous injection of […] streptozotocin (Sigma, USA) after birth and feeding with a high fat diet (HFD, 57% kcal fat, CLEA Japan, Japan) ad libitum after 4 weeks of age (day 28±2). Randomization of NASH mice into six groups of 12 mice at 6 weeks of age (day 42±2) and six groups of 12 mice at 9 weeks of age (day 63±2), the day before the start of treatment, respectively. NASH animals were dosed from age 6-9 weeks (Study 1), or from age 9-12 weeks (Study 2) with either: vehicle, cenicriviroc, Compound A (“NVP-CH-4”), Compound B (“NVP-CH-5”), cenicriviroc+Compound A or cenicriviroc+Compound B. A non-disease vehicle-control group of 12 mice was included in both Study 1 and Study 2. These animals were fed with a normal diet (CE-2; CLEA Japan) ad libitum.
PK samples were collected and stored at −60° C. Animals were dosed according to the dosing schedule below. Each animal was sacrificed 5 hours after last morning dose on the last day of study treatment (the evening dose of cenicriviroc or vehicle […] that day due to sacrifice).
Dosing: • Cenicriviroc was prepared in 0.5% (w/v) methylcellulose with 1% Tween® 80 in sterile water for injection (USP). • Compound A and Compound B were prepared in 0.5% (w/v) methylcellulose (400 cPs) aqueous solution containing 0.5% (v/v) polysorbate 80, NF, in reverse osmosis water. • In general, cenicriviroc monotherapy was administered twice daily, 12 hours apart (AM and PM). For Compound A or Compound B monotherapy groups, drug was administered once daily in the morning with vehicle alone in the evening (12 hours after the morning dose).
End of Treatment Measurements: Mice were sacrificed at 9 weeks of age (study 1) or at 12 weeks of age (study 2).
The following biochemical assays were performed: Non-fasting blood glucose in whole blood by Life Check (Eidia, Japan); serum ALT by FUJI DRI-CHEM (Fujifilm, Japan); serum triglyceride; serum MCP-1, RANTES (CCLS) and MIP-1α/MIP-1 quantification by a commercial ELISA kit; liver triglyceride by Triglyceride E-test kit (Wako, Japan); liver hydroxyproline quantification by hydrolysis method; histological analyses for liver section; HE staining and estimation of NAFLD Activity score; Sirius-red staining and estimation of fibrosis area (with and without perivascular space subtracted); oil red staining and estimation of fat deposition area; F4/80 immunohistochemistry staining and estimation of inflammation area; alpha-SMA immunohistochemistry staining and estimation of α-SMA positive area Gene expression assays using total RNA from the liver.
Statistical tests were performed using one-way ANOVA followed by Dunnett's test and the Mann-Whitney test, as appropriate, for the multiple group comparisons. P values <0.05 are considered statistically significant.

[2] = test system: NASH in adults with liver fibrosis; conditions: cited from earlier work
PBC = PBC patients; cited from earlier work
[3] = test system: nonalcoholic steatohepatitis patients; conditions: cited from earlier work
[4] = Study 1, treatment week 6-9, CVC 50 mg/kg AM and PM, Compound A 0.1 mg/kg, Compound B 10 mg/kg
[5] = NASH adults with liver fibrosis, one year
[6] = Study 2, treatment week 9-12, same doses

## CCCCOCCOc1ccc(-c2ccc3c(c2)/C=C(/C(=O)Nc2ccc([S@@+]([O-])Cc4cncn4CCC)cc2)CCCN3CC(C)C)cc1 [CVC, (S,E)-8-(4-(2-butoxyethoxy)phenyI)-1-(2-methylpropyl)-N-(4-(((1-propyl-1H-imidazol-5-yl)methyl)sulfinyl)phenyl)-1,2,3,4-tetrahydrobenzo[b]azocine-5-carboxamide]
[1]; [4]
  NAFLD Activity Score (NAS) compared with the STAM-Vehicle group: significant reductions in NAS
[2]; [5]
  fibrosis: reduction of fibrosis
  improvement of NAS: no significant impact
[2]; patients
  adverse effects: can induce fatigue or diarrhea in a small part of the patients

## O=C(O)c1cc(F)c2nc(N3C4CCC3CC(OCc3c(-c5ccccc5OC(F)(F)F)noc3C3CC3)C4)sc2c1 (centres unmarked) [Compound A, 2-[3-({5-cyclopropyl-3-[2-(trifluoromethoxy)phenyl]-1,2-oxazol-4-yl}methoxy)-8-azabicyclo[3.2.1]octan-8-yl]-4-fluoro-1,3-benzothiazole-6-carboxylic acid]
[1]; [4]
  NAFLD Activity Score (NAS) compared with the STAM-Vehicle group: significant reductions in NAS
[1]; [6]
  NAFLD Activity Score (NAS) compared with the STAM-Vehicle group: significant reductions in NAS

## Cn1nc(C(=O)N(Cc2ccccc2)Cc2ccc(C(=O)O)cc2)c2c1-c1cc(Cl)ccc1OC2 [Compound B, 4-((N-benzyl-8-chloro-1-methyl-1,4-dihydrochromeno[4,3-c]pyrazole-3 carboxamido)methyl)benzoic acid]
[1]; [4]
  NAFLD Activity Score (NAS) compared with the STAM-Vehicle group: significant reductions in NAS
[1]; Study 1, week 6-9, FIG. 1.2
  inflammatory cell infiltration score compared with the STAM-Vehicle group: significant reductions in the inflammatory cell infiltration score
[1]; [6]
  NAFLD Activity Score (NAS) compared with the STAM-Vehicle group: significant reductions in NAS

## C[C@H](CCC(=O)O)[C@H]1CC[C@H]2[C@@H]3[C@@H](O)C[C@@H]4C[C@H](O)CC[C@]4(C)[C@H]3CC[C@]12C [UDCA, Ursodeoxycholic acid]
PBC
  population that does not respond: 30-40%

## CC[C@H]1[C@@H](O)[C@@H]2[C@H](CC[C@]3(C)[C@@H]([C@H](C)CCC(=O)O)CC[C@@H]23)[C@@]2(C)CC[C@@H](O)C[C@@H]12 [obeticholic acid, Obeticholic acid]
[3]
  safety concerns of long term administration: can be associated with pruritus, as well as with increased LDL cholesterol
